From patent US8257755B2, “Metabolic syndrome-improving agent and medicine, supplement, functional food and food additive containing the same” (ARKRAY, Inc., priority 2005, dated 2012)

System: 3T3-L1 cells
Assay: mRNA expression of aP2 and adiponectin in differentiated 3T3-L1 adipocytes (Light Cycler)
Assay type: cell-based, mouse
Settings: 7 days after differentiation induction, non-treatment control = 100, average ± standard error
Experimental: Next, culture preadipocytes 3T3-L1 were thawed, inoculated in a 100 mm dish and cultured until 3T3-L1 cells reached about 80% confluence. A single dish of 3T3-L1 that had reached about 80% confluence was subcultured to a single 6-well plate and further cultured until the 3T3-L1 cells reached confluence in the 6-well plate, and then the medium was replaced with the differentiation induction medium, followed by differentiation induction. 48 hours later, the medium was replaced with the differentiation promotion medium, and thereafter, the medium was replaced with the differentiation promotion medium every two days. 7 days after the initiation of the differentiation induction, mRNA was extracted using Sepasol-RNA I Super (trade name; manufactured by Nacalai Tesque, Inc.), and the mRNA expression amounts of 36B4, aP2 and adiponectin, which were indicators of an early period of adipocyte differentiation, were measured using Light Cycler (TM). Also, the medium 7 days after the differentiation induction was taken in an amount of 1 mL from each well, and the amount of adiponectin in the medium supernatant was measured using a mouse/rat adiponectin ELISA kit (manufactured by Otsuka Pharmaceutical Co., Ltd.).
The medium was removed from the above-described 6-well plate, 1 mL of Sepasol(R)-RNA I Super (manufactured by Nacalai Tesque, Inc.) was added to each well, and pipetting was repeated several times so as to disperse the cells. This solution was transferred to a 1.5 mL tube and allowed to stand for 5 minutes at room temperature, and then 200 μL of chloroform was added, stirred well with a vortex stirrer and allowed to stand for 3 minutes at room temperature. The solution was cooled to 4° C. and centrifuged at 12000×g for 15 minutes. While taking great care not to disturb an interface between a phenol layer (a lower layer, yellow) and a water layer (an upper layer, colorless), the water layer alone was transferred to another tube (with a capacity of 1.5 mL). At this time, care was taken not to take proteins floating between these layers. 500 μL of isopropanol was added to the tube and mixed and allowed to stand for 10 minutes at room temperature. The solution was cooled to 4° C. and centrifuged at 12000×g for 10 minutes, followed by removing about 1 mL of the supernatant. To this precipitate, 1 mL of 75% ethanol was added and stirred to suspend the precipitate sufficiently, and then cooled to 4° C. and centrifuged at 12000×g for 10 minutes, followed by removing the supernatant. The resultant precipitate (total RNA) was dried and then dissolved in 20 μL of nuclease free water, thus measuring the concentration of mRNA using NanoDrop (manufactured by SCRUM Inc.).
The extracted and measured mRNA solution was adjusted to have an mRNA concentration of 1 μg/μL. […]

For `CC(C)=CCC/C(C)=C/COc1c2ccoc2cc2oc(=O)ccc12` [Bergamottin, bergamottin], the “Adiponectin mRNA expression amount (ratio to 36B4)” value (1 μM) was 189.5 ± 9.7, the “aP2 mRNA expression amount (ratio to 36B4)” value (1 μM) was 157.5 ± 7.3 and the “Adiponectin mRNA expression amount (ratio to 36B4)” value (5 μM) was 227.2 ± 16.0. For the same compound, the “aP2 mRNA expression amount (ratio to 36B4)” value (5 μM) was 194.6 ± 9.0.
